Assay results: patent US12172975B2, “1H-indazole carboxamides as receptor-interacting protein kinase 1 inhibitors (RIPK1)” (BRISTOL-MYERS SQUIBB COMPANY, priority 2018, dated 2024)
Where a name gives a salt, the structure may show the parent alone. Read-outs that look alike come from different tables or passages of the source.

What was measured:
[1] = test system: MLKL phosphorylation in HT29-L23 human colorectal adenocarcinoma cells; assay: MLKL Phosphorylation High-Content Assay; assay type: cell-based; conditions: 6 h, necroptosis induced with TNFα, SMAC mimetic and Z-VAD, read-out: pMLKL (IC50)
How it was run: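 HT29-L23 cells were induced to necroptosis with TNFα (35 ng/mL), SMAC mimetic (700 nM) and Z-VAD (140 nM) for 6 h at 37 °C. Phospho-MLKL (S358) immunofluorescence was imaged and quantified per cell; maximal inhibition set by Nec-1s (6.25 μM), and IC50/Ymax from 4-parameter logistic fit.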

[2] = molecular target: His-GST-TVMV-hRIPK1 (1-324) (Homo sapiens (Human), UniProt Q13546); assay: RIPK1 HTRF Binding Assay; conditions: read-out: RIPK1 HTRF (IC50); FRET probe displacement, 1 h at rt
Sequence of His-GST-TVMV-hRIPK1 (1-324) (Q13546 1-324): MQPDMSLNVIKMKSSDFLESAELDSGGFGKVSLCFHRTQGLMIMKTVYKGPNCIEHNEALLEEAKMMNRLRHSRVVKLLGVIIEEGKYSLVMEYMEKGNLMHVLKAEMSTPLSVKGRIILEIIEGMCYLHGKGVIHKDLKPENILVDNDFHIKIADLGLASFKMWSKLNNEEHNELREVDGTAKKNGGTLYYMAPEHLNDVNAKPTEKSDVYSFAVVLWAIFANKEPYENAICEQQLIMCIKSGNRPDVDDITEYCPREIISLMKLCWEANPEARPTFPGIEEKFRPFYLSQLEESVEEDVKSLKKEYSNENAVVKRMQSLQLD
Method: A solution was prepared containing 0.2 nM Anti GST-Tb (Cisbio, 61GSTTLB), 90.6 nM probe and 1 nM His-GST-TVMV-hRIPK1 (1-324) in FRET Buffer (20 mM HEPES, 10 mM MgCl2, 0.015% Brij-35, 4 mM DTT, 0.05 mg/mL BSA). Using Formulatrix Tempest, the detection antibody/enzyme/probe solution (2 mL) was dispensed into wells of a 1536 plate (Black Low Binding Polystyrene 1536 Plate (Corning, 3724)) containing 10 nL of compounds of interest at appropriate concentration in DMSO. The plate was incubated at rt for 1 h. FRET was measured using the EnVision plate reader (Excitation: 340 nm, Emission: 520 nm/495 nM). Total signal (0% inhibition) was calculated from wells containing 10 nL DMSO only.

| SMILES | IC50 ([1]; Homo sapiens) | IC50 [2] | IC50 [1] |
| --- | --- | --- | --- |
| COc1ncc(-c2ccc3c(C(=O)NCCCN4CCCC4=O)n[nH]c3c2)cc1C(=O)NCc1ccccc1OC(F)(F)F [Example 177, 6-[6-methoxy-5-({[2-(trifluoro-methoxy)phenyl]methyl}-carbamoyl)pyridin-3-yl]-N-[3-(2-oxopyrrolidin-1-yl)propyl]-1H-indazole-3-carboxamide] | 15 nM | 2.9 nM |  |
| CCNC(=O)c1n[nH]c2cc(-c3cnc(OC)c(C(=O)N[C@H](C)c4cc(C(F)(F)F)ccc4F)c3)ccc12 [Example 234, N-[(1,1,2,2,2-deutero)ethyl]-6-(5-{[(1R)-1-[2-fluoro-5-(trifluorometh-yl)phenyl](2,2,2-deutero)ethyl]-carbamoyl}-6-(deutero)methoxy-pyridin-3-yl)-1H-indazole-3-carbox-amide] |  | 8.7 nM | 20 nM |
| CNC(=O)c1n[nH]c2cc(-c3cnc(OC)c(C(=O)NC4CCCC(Oc5ccccc5)C4)c3)ccc12 (centres unmarked) [Example 118, 6-{6-methoxy-5-[(3-phenoxy-cyclohexyl)carbamoyl]pyridin-3-yl}-N-methyl-1H-indazole-3-carboxamide] | 2.6 nM | 6.2 nM |  |
| [2H]C([2H])([2H])Oc1ncc(-c2ccc3c(C(=O)NC)n[nH]c3c2)cc1C(=O)NC(C)c1cc(F)ccc1C(F)(F)F (centres unmarked) [Example 36, 6-[5-({1-[5-fluoro-2-(trifluoro-methyl)phenyl]ethyl}carbamoyl)-6-(deutero)methoxypyridin-3-yl]-N-methyl-1H-indazole-3-carbox-amide] | 20 nM | 9.3 nM |  |
| COc1ncc(-c2ccc3c(C(=O)NC4CC(=O)N(C)C4)n[nH]c3c2)cc1C(=O)NCc1ccccc1OC(F)(F)F (centres unmarked) [Example 187, 6-[6-methoxy-5-({[2-(trifluoro-methoxy)phenyl]methyl}-carbamoyl)pyridin-3-yl]-N-(1-methyl-5-oxopyrrolidin-3-yl)-1H-indazole-3-carboxamide, TFA] | 78 nM | 28 nM |  |
| CNC(=O)c1n[nH]c2cc(-c3cnc(OC)c(C(=O)NC4CCCC(NC(=O)C(C)(C)C)C4)c3)ccc12 (single isomer, unassigned) [Example 17, 6-(6-methoxy-5-((3-pivalamidocyclohexyl)carbamoyl)pyridin-3-yl)-N-methyl-1H-indazole-3-carboxamide] | 19 nM | 21 nM |  |
| [2H]C([2H])([2H])Oc1ncc(-c2ccc3c(C(=O)NC([2H])([2H])C([2H])([2H])[2H])n[nH]c3c2)cc1C(=O)NC(C)c1cc(F)ccc1C(F)(F)F (centres unmarked) [Example 228, N-[(1,1,2,2,2-deutero)ethyl]-6-[5-({1-[5-fluoro-2-(trifluoromethyl)-phenyl]ethyl}carbamoyl)-6-(deutero)methoxypyridin-3-yl]-1H-indazole-3-carboxamide] | 51 nM | 58 nM |  |
| COc1ncc(-c2ccc3c(C(=O)NC4CCN(S(C)(=O)=O)CC4)n[nH]c3c2)cc1C(=O)NCc1ccccc1OC(F)(F)F [Example 169, N-(1-methanesulfonylpiperidin-4-yl)-6-[6-methoxy-5-({[2-(trifluoromethoxy)phenyl]-methyl}carbamoyl)pyridin-3-yl]-1H-indazole-3-carboxamide] | 31 nM | 22 nM |  |
| COc1ncc(-c2ccc3c(C(=O)NC4CC(=O)N(C(C)C)C4)n[nH]c3c2)cc1C(=O)NCc1ccccc1OC(F)(F)F (centres unmarked) [Example 181, 6-[6-methoxy-5-({[2-(trifluoro-methoxy)phenyl]methyl}carbam-oyl)pyridin-3-yl]-N-[5-oxo-1-(propan-2-yl)pyrrolidin-3-yl]-1H-indazole-3-carboxamide, TFA] | 82 nM | 27 nM |  |
| [2H]C([2H])([2H])Oc1ncc(-c2ccc3c(C(=O)NC4CC4)n[nH]c3c2)cc1C(=O)NC1CCCC(C(=O)N2CCC(F)(F)C2)C1 (centres unmarked) [Example 203, N-cyclopropyl-6-(5-{[3-(3,3-difluoropyrrolidine-1-carbonyl)-cyclohexyl]carbamoyl}-6-(deutero)methoxypyridin-3-yl)-1H-indazole-3-carboxamide, TFA] | 95 nM | 12 nM |  |
| CNC(=O)c1n[nH]c2cc(-c3cnc(OC)c(C(=O)NC4CCCC(C(=O)N(C)C)C4)c3)ccc12 (centres unmarked) [Example 120, 6-(5-{[3-(dimethylcarbam-oyl)cyclohexyl]carbamoyl}-6-methoxypyridin-3-yl)-N-methyl-1H-indazole-3-carbox-amide] |  | 11 nM | 100 nM |
| [2H]C([2H])([2H])NC(=O)c1n[nH]c2cc(-c3cnc(OC([2H])([2H])[2H])c(C(=O)N[C@@H](C)c4cccc(C(F)(F)F)c4)c3)ccc12 [Example 214, 6-[6-(deutero)methoxy-5-{[(1S)-1-[3-(trifluoromethyl)phenyl]ethyl]carbam-oyl}pyridin-3-yl]-N-(deutero)methyl-1H-indazole-3-carboxamide] | 36 nM | 9.8 nM |  |
| CNC(=O)c1n[nH]c2cc(-c3cnc(OC)c(C(=O)NCC4CCCOC4C(C)(C)C)c3)ccc12 (centres unmarked) [Example 83, 6-(5-{[(2-tert-butyloxan-3-yl)-methyl]carbamoyl}-6-methoxy-pyridin-3-yl)-N-methyl-1H-indazole-3-carboxamide] | 47 nM | 7.6 nM |  |
| [2H]C([2H])([2H])Oc1ncc(-c2ccc3c(C(=O)NC([2H])([2H])C([2H])([2H])[2H])n[nH]c3c2)cc1C(=O)N[C@H](C)c1ccccc1OC(F)(F)F [Example 2, (R)—N-(ethyl-d5)-6-(6-(methoxy-d3)-5-((1-(2-(trifluoromethoxy)phenyl)ethyl)carbamoyl)pyridin-3-yl)-1H-indazole-3-carboxamide] | 3.5 nM | 5.5 nM |  |
| CNC(=O)c1n[nH]c2cc(-c3cnc(OC)c(C(=O)NCC4CCCN4C(=O)C(C)(C)C(F)(F)F)c3)ccc12 (centres unmarked) [Example 96, 6-[6-methoxy-5-({[1-(3,3,3-trifIuoro-2,2-dimethylpropan-oyl)pyrrolidin-2-yl]methyl}-carbamoyl)pyridin-3-yl]-N-methyl-1H-indazole-3-carboxamide] |  | 34 nM | 4.6 nM |
| CNC(=O)c1n[nH]c2cc(-c3cc(C(=O)NC(C)c4cccc(OC(F)(F)F)c4)c(C)nc3C)ccc12 (single isomer, unassigned) [Example 164, 6-[2,6-dimethyl-5-({1-[3-(trifluoromethoxy)phenyl]-ethyl}carbamoyl)pyridin-3-yl]-N-methyl-1H-indazole-3-carboxamide] |  | 5.4 nM | 3.7 nM |
| CNC(=O)c1n[nH]c2cc(-c3cnc(OC)c(C(=O)NCCCOc4ccccc4)c3)ccc12 [Example 55, 6-{6-methoxy-5-[(3-phenoxy-propyl)carbamoyl]pyridin-3-yl}-N-methyl-1H-indazole-3-carboxamide] | 27 nM | 12 nM |  |
| COc1ncc(-c2ccc3c(C(=O)NC4CCN(C(C)=O)CC4)n[nH]c3c2)cc1C(=O)NCc1ccccc1OC(F)(F)F [Example 180, N-(1-acetylpiperidin-4-yl)-6-[6-methoxy-5-({[2-(trifluoro-methoxy)phenyl]methyl}carbam-oyl)pyridin-3-yl]-1H-indazole-3-carboxamide] | 39 nM | 19 nM |  |
| CNC(=O)c1n[nH]c2cc(-c3cnc(OC)c(C(=O)NCC4CCCCC4)c3)ccc12 [Example 138, 6-{5-[(cyclohexylmethyl)-carbamoyl]-6-methoxy-pyridin-3-yl}-N-methyl-1H-indazole-3-carboxamide] | 89 nM | 12 nM |  |
